We go through three compounds from patent US20070031511A1, “Method of treatment” (priority 2003, published 2007).

Where two headings read alike, the source gives them in different places.

One assay concerns Ggly receptor. The experiment in a line: [125I]-Ggly binding to the Ggly receptor on IMGE-5 cells. Also noted: species or system mice. The method, then:
[^125I]-Ggly binding assays were carried out by previously described methods (Yang et al, 2001). Briefly, 5×10^5 IMGE-5 cells/well were seeded in 6-well plates and grown at 33° C. for 24 hours. The cells were then serum starved and shifted to 39° C. for 24 h. […] Cells were then washed three times in ice-cold PBS and lysed with 1 M NaOH, and the amount of radioactivity bound was measured in a γ-counter.

The target in another assay is T1, CCK-2 receptor (Homo sapiens, UniProt P32239).
T1 sequence (P32239 1-447): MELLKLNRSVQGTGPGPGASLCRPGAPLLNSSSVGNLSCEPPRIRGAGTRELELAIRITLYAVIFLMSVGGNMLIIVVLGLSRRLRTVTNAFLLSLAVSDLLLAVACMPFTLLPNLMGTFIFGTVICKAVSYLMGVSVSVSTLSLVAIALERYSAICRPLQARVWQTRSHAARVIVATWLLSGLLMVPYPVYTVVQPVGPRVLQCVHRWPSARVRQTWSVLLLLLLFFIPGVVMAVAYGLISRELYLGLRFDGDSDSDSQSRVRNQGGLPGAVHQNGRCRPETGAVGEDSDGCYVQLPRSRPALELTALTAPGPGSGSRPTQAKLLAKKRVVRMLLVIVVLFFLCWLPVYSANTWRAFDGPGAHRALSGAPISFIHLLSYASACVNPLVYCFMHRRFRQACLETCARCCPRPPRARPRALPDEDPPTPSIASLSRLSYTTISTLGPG
As to the kind of experiment: Gamide-stimulated proliferation in CHO cells stably transfected with the CCK-2 receptor. Also noted: expressed in transfected cells; host or cells: CHO. Type of assay: cell-based.

A short description of assay [1]: Quenching of gastrin tryptophan fluorescence by bismuth ions. Type of assay: binding. The following applies: pH 4.0. The source says: Values from the indicated number of independent experiments were combined to obtain the mean values (±S.E.) presented above.
The subject of a further assay is IMGE-5 cells. As to the kind of experiment: IMGE-5 cell proliferation, [3H]-thymidine incorporation. Type of assay: cell-based, mice. The following applies: IMGE cells, thymidine uptake; best fit at saturating concentration. The method, then: In some cases cell proliferation was also measured by [^3H]-thymidine incorporation as described previously (Oiry et al., 2000). Briefly, IMGE-5 cells (10^5/well) were seeded in 24-well plates in medium containing 10% FBS and 1 unit/ml γ-interferon. On the next day cells were serum starved and shifted to 39° C. for 24 hr. Cells were then incubated with or without various compounds at 39° C. for 17 h in medium supplemented with 0.2% bovine serum albumin only. Cells were incubated with 0.5 μCi of [^3H] thymidine in the same medium at 39° C. for 4 h, washed twice with PBS (2.7 mM KCl, 142 mM NaCl, 1.5 mM KH2PO4, 10 mM Na2HPO4, pH 6.95) containing 0.2% bovine serum albumin and incubated at 4° C. for 30 min with 5% trichloroacetic acid. Finally cells were washed with 95% ethanol to remove unincorporated [^3H] thymidine, and lysed with 1 M NaOH. Lysates were transferred to counting vials and neutralized with 1M HCl. The radioactivity of each lysate was counted in a β-counter after the addition of 10 ml of Pico-fluor 40 solution (Packard, Meriden, Conn.).
In some experiments IMGE-5 cells were seeded in a 96-well plate at a density of 3-5×10^3 cells/well in.DMEM containing 10% FBS, and cultured at 33° C.. On the following day, the cells were serum-starved at 33° C. for 24 h. […] The cells were cultured at 39° C. for 24 h, and then harvested using a NUNC cell harvester. The amount of ^3H-thymidine incorporated through DNA synthesis was detected with a β-counter (Packard, Meriden, Conn.). […]

Assay [2] relates to IMGE-5 gastric epithelial cells. The experiment in a line: Ggly-stimulated inositol phosphate production in IMGE-5 cells. Type of assay: cell-based, mice. The method, then:
Intracellular inositol phosphate production was determined as described previously (Qian et al, 1993). IMGE-5 cells (10^5 cells/ml) were plated in 24-multiwell culture plates in DMEM supplemented with 10% FBS, 200 IU/ml penicillin and 200 μg/ml streptomycin. 24 h later, cells were incubated with DMEM supplemented with antibiotics and Myo-[2-^3H]inositol (2.5 μCi/well) and shifted to 39° C. for 16 h. Cells were then washed with pre-warmed DMEM and incubated (20-30 minutes, 37° C.) with DMEM supplemented with 20 mM LiCl. Loaded cells were then washed in 1 ml of IP buffer (135 mM NaCl, 20 mM N-(2-hydroxyethyl)piperazine-N′-(2-ethanesulfonic acid), 2 mM CaCl2, 1.2 mM MgSO4, 1 mM ethylene glycol-bis(2-aminoethylether)-N,N,N′,N′-tetraacetic acid, 10 mM LiCl, and 0.5% bovine serum albumin, pH 7.45) and incubated with or without agonist in a final volume of 0.5 ml of IP buffer. After 1-h incubation at 37° C., the reaction was stopped by removing the incubation medium and adding 1 ml of a mixture of ethanol/HCl (2000:1; v/v). One ml of each aliquot was applied to a column containing 1.6 ml of a 1:2 (v/v) Dowex AG-1-X8 anion exchange resin in distilled water. […] The radioactivity of each eluate was counted after addition of Complete phase combining system solution (Amersham, UK). […]
Ggly-stimulated inositol phosphate production was measured in HT29 human colorectal carcinoma cells.

The conditions of assay [3]: read-out: Kd for binding of ferric ions to Ggly; pH 4.0; taken from Baldwin et al. (2001); cited from earlier work.

`[Bi+3]` [bismuth ions]: the entries for the “Inhibition of [125I]-Ggly binding” value in the assay with Ggly receptor (2 moles Bi3+/mole Ggly) and with Ggly receptor (8 or 32 moles Bi3+/mole Ggly) were 50% and “complete inhibition”, respectively. In addition, at CCK-2 receptor, the “Effect on Gamide-stimulated proliferation” value is “did not significantly inhibit”.
Turning to `CSCC[C@H](NC(=O)[C@H](Cc1c[nH]c2ccccc12)NC(=O)CNC(=O)[C@H](Cc1ccc(O)cc1)NC(=O)[C@H](C)NC(=O)[C@H](CCC(=O)O)NC(=O)[C@H](CCC(=O)O)NC(=O)[C@H](CCC(=O)O)NC(=O)[C@H](CCC(=O)O)NC(=O)[C@H](CCC(=O)O)NC(=O)[C@H](CC(C)C)NC(=O)[C@H](Cc1c[nH]c2ccccc12)NC(=O)[C@@H]1CCCN1C(=O)CNC(=O)[C@@H]1CCC(=O)N1)C(=O)N[C@@H](CC(=O)O)C(=O)N[C@@H](Cc1ccccc1)C(N)=O` [Gamide], the Kd came out at 8.6 ± 1.2 µM in assay [1] (single experiment, two independent sites with identical affinities, read-out: Kd for bismuth ions, line of best fit of FIG. 11) and 8.2 ± 0.8 µM in assay [1] (two identical independent binding sites, mean ± S.E. of 5 experiments, read-out: Bismuth Kd).
As for “Ggly: glycine-extended gastrin17, 18 amino acid non-amidated gastrin, SEQ ID NO:4, residues 55-72 of progastrin (XGPWLEEEEEAYGWMDFG; (1)..(1) pyroglutamate; listed as Homo sapiens)”, the “S (%), maximum % stimulation” value in the assay with IMGE-5 cells was 37.3%. The “Ggly stimulation of inositol phosphate production compared to the control” value in assay [2] was found to be 110%. Also, the Kd in assay [3] is 0.6 µM.
